Reference: patent publication USRE48335E1, “Polymyxin derivatives as antimicrobial compounds” (priority 2014, dated 2020)
In brackets after ≈: the same amount, converted by molar mass. Starred links: 1 amine or outer side, 2 acyl side, 3 side chain; linkers in the order of their positions; H or OH if unused. Positions of bridges follow the written chain, without caps; N, C: chain ends. Non-standard residues stand in square brackets, D forms with d. Residues, ends and D or L forms follow the SMILES beside them. ξ: configuration not given here. *: point of attachment. X2 = CC(C)C[C@@H](CC(=O)[C@H](CCN)N[*:1])C(=O)[*:2]; Benzoyl(3-CF3) = O=C(c1cccc(C(F)(F)F)c1)*; Thr(3ξ) = CC(O)[C@H](N)C(=O)O; dNle = CCCC[C@@H](N)C(=O)O; Octanoyl = CCCCCCCC(=O)*; Dab = NCC[C@H](N)C(=O)O; Abu = CC[C@H](N)C(=O)O; Dap = NC[C@H](N)C(=O)O

Key:
A. baumannii ATCC 19606 = assay: In vivo efficacy in mouse blood infection model (neutropenic Swiss mice); conditions: compound, free base 4 mg/kg intravenously 2 h after inoculation, blood at 4 h
Procedure, shortened: (§1)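 Neutropenic Swiss mice (cyclophosphamide 150 mg/kg day −4, 100 mg/kg day −1, i.p.) infected i.v. with early log-phase bacteria; 4 mg/kg free base i.v. given 2 h post-inoculation. Blood CFU by cardiac puncture 4 h post-dose; Δlog10 CFU/mL treated versus saline controls.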

[1] = tested on: K. pneumoniae FADDI-KP032; assay: as above; conditions: compound, free base 4 mg/kg intravenously 2 h after inoculation, blood at 4 h
Procedure, shortened: as §1

P. aeruginosa ATCC 27853 = assay: as above; conditions: compound, free base 4 mg/kg intravenously 2 h after inoculation, blood at 4 h
Procedure, shortened: as §1

Pseudomonas aeruginosa = tested on: Pseudomonas aeruginosa
Procedure, shortened: (§2)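 Broth microdilution MICs following CLSI standards in cation-adjusted Mueller-Hinton broth. Lipopeptides tested as TFA salts; polymyxin B sulphate served as control.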

Klebsiella pneumoniae = tested on: Klebsiella pneumoniae
Procedure, shortened: as §2

Acinetobacter baumannii = tested on: Acinetobacter baumannii
Procedure, shortened: as §2

Enterobacter cloacae = tested on: Enterobacter cloacae
Procedure, shortened: as §2

SMILES	Δ log (Treated-Control at 4 h) (A. baumannii ATCC 19606) [log10 CFU/mL]	Δ log (Treated-Control at 4 h) [1] [log10 CFU/mL]	Δ log (Treated-Control at 4 h) (P. aeruginosa ATCC 27853) [log10 CFU/mL]	MIC (Pseudomonas aeruginosa) [µg/mL]	Minimum inhibitory concentration, Pa ATCC 27853 (Pseudomonas aeruginosa) [µg/mL]	Minimum inhibitory concentration, Pa FADDI-PA022 (Pseudomonas aeruginosa) [µg/mL]	Minimum inhibitory concentration, Pa FADDI-PA025 (Pseudomonas aeruginosa) [µg/mL]	MIC (Klebsiella pneumoniae) [µg/mL]	MIC (Acinetobacter baumannii) [µg/mL]	Minimum inhibitory concentration, Ab A ATCC 17978 (Acinetobacter baumannii) [µg/mL]	Minimum inhibitory concentration, Ab ATCC 19606 (Acinetobacter baumannii) [µg/mL]	Minimum inhibitory concentration, Ab FADDI-AB034 (Acinetobacter baumannii) [µg/mL]	Minimum inhibitory concentration, Ec FADDI-EC001 (Enterobacter cloacae) [µg/mL]	Minimum inhibitory concentration, Ec FADDI-EC003 (Enterobacter cloacae) [µg/mL]	Minimum inhibitory concentration, Ec FADDI-EC006 (Enterobacter cloacae) [µg/mL]
CCCCCCCC(=O)N[C@@H](CCN)C(=O)N[C@H](C(=O)N[C@H](CO)C(=O)N[C@H]1CCNC(=O)[C@H](C(C)O)NC(=O)[C@H](CCN)NC(=O)[C@H](CCN)NC(=O)[C@H](C(C)O)NC(=O)[C@@H](CC(C)C)CC(=O)[C@H](CCN)NC1=O)C(C)O (some centres unmarked) [Compound 1] (Octanoyl-[Dab][Thr(3ξ)][dS][Dab][X2][Thr(3ξ)][Dab][Dab][Thr(3ξ)]; lactam 4-C)	−2.13	−3.49	0.40	4 (≈ 3.54 µM)	4 (≈ 3.54 µM)	4 (≈ 3.54 µM)	>32	0.5 (≈ 0.443 µM)	<0.125	0.25 (≈ 0.221 µM)	1 (≈ 0.885 µM)	0.25 (≈ 0.221 µM)	<0.125	<0.125	0.5 (≈ 0.443 µM)
CCCCCCCC(=O)N[C@@H](CCN)C(=O)N[C@H](C(=O)N[C@@H](CO)C(=O)N[C@H]1CCNC(=O)[C@H]([C@@H](C)O)NC(=O)[C@H](CCN)NC(=O)[C@H](CCN)NC(=O)[C@H]([C@@H](C)O)NC(=O)[C@@H](CC(C)C)NC(=O)[C@H](CCN)NC1=O)[C@@H](C)O [Compound 4] (Octanoyl-[Dab]TS[Dab][Dab][dL]T[Dab][Dab]T; lactam 4-C)		−1.84		4 (≈ 3.54 µM)	4 (≈ 3.54 µM)	8 (≈ 7.08 µM)	>32	1 (≈ 0.885 µM)	8 (≈ 7.08 µM)	8 (≈ 7.08 µM)	8 (≈ 7.08 µM)	4 (≈ 3.54 µM)	0.5 (≈ 0.442 µM)	0.25 (≈ 0.221 µM)	1 (≈ 0.885 µM)
CCCCCCCC(=O)N[C@@H](CCN)C(=O)N[C@H](C(=O)N[C@H](CO)C(=O)N[C@H]1CCNC(=O)[C@H]([C@@H](C)O)NC(=O)[C@H](CCN)NC(=O)[C@H](CCN)NC(=O)[C@H]([C@@H](C)O)NC(=O)[C@@H](CCCC)NC(=O)[C@H](CCN)NC1=O)[C@@H](C)O [Compound 7] (Octanoyl-[Dab]T[dS][Dab][Dab][dNle]T[Dab][Dab]T; lactam 4-C)	−2.87	−3.39	−0.61		2 (≈ 1.77 µM)	4 (≈ 3.54 µM)	>32	<0.125	0.25 (≈ 0.221 µM)	<0.125	0.25 (≈ 0.221 µM)	<0.125	0.25 (≈ 0.221 µM)	0.25 (≈ 0.221 µM)	0.5 (≈ 0.442 µM)
CCCCCCCC(=O)N[C@@H](CCN)C(=O)N[C@H](C(=O)N[C@@H](CCN)C(=O)N[C@H]1CCNC(=O)[C@H]([C@@H](C)O)NC(=O)[C@H](CCN)NC(=O)[C@H](CCN)NC(=O)[C@H](CO)NC(=O)[C@@H](CC(C)C)NC(=O)[C@H](CCN)NC1=O)[C@@H](C)O [Compound 25] (Octanoyl-[Dab]T[Dab][Dab][Dab][dL]S[Dab][Dab]T; lactam 4-C)	0.27	−2.65		>32	>32	0.5 (≈ 0.443 µM)	>32	0.25 (≈ 0.221 µM)	8 (≈ 7.08 µM)	4 (≈ 3.54 µM)	8 (≈ 7.08 µM)	4 (≈ 3.54 µM)	<0.125	0.25 (≈ 0.221 µM)	0.5 (≈ 0.443 µM)
CC[C@@H]1NC(=O)[C@@H](CC(C)C)NC(=O)[C@H](CCN)NC(=O)[C@@H](NC(=O)[C@H](CN)NC(=O)[C@@H](NC(=O)[C@H](CCN)NC(=O)c2cccc(C(F)(F)F)c2)[C@@H](C)O)CCNC(=O)[C@H]([C@@H](C)O)NC(=O)[C@H](CCN)NC(=O)[C@H](CCN)NC1=O [Compound 106] ({Benzoyl(3-CF3)}-[Dab]T[Dap][Dab][Dab][dL][Abu][Dab][Dab]T; lactam 4-C)		−2.77	−2.33	0.5 (≈ 0.431 µM)	0.5 (≈ 0.431 µM)	0.5 (≈ 0.431 µM)	2 (≈ 1.73 µM)	0.25 (≈ 0.216 µM)	0.5 (≈ 0.431 µM)	0.5 (≈ 0.431 µM)	0.5 (≈ 0.431 µM)	0.25 (≈ 0.216 µM)	0.25 (≈ 0.216 µM)	0.5 (≈ 0.431 µM)	0.25 (≈ 0.216 µM)
CCCC[C@H]1NC(=O)[C@H](CCN)NC(=O)[C@@H](NC(=O)[C@H](CN)NC(=O)[C@@H](NC(=O)[C@H](CCN)NC(=O)c2cccc(C(F)(F)F)c2)[C@@H](C)O)CCNC(=O)[C@H]([C@@H](C)O)NC(=O)[C@H](CCN)NC(=O)[C@H](CCN)NC(=O)[C@H]([C@@H](C)O)NC1=O [Compound 123] ({Benzoyl(3-CF3)}-[Dab]T[Dap][Dab][Dab][dNle]T[Dab][Dab]T; lactam 4-C)	−1.53		−2.96	0.5 (≈ 0.425 µM)	0.5 (≈ 0.425 µM)	0.5 (≈ 0.425 µM)	2 (≈ 1.7 µM)	0.5 (≈ 0.425 µM)	1 (≈ 0.851 µM)	1 (≈ 0.851 µM)	1 (≈ 0.851 µM)	0.5 (≈ 0.425 µM)	0.5 (≈ 0.425 µM)	0.5 (≈ 0.425 µM)	1 (≈ 0.851 µM)
C[C@@H]1NC(=O)[C@@H](Cc2ccccc2)NC(=O)[C@H](CCN)NC(=O)[C@@H](NC(=O)[C@H](CN)NC(=O)[C@@H](NC(=O)[C@H](CCN)NC(=O)c2cccc(C(F)(F)F)c2)[C@@H](C)O)CCNC(=O)[C@H]([C@@H](C)O)NC(=O)[C@H](CCN)NC(=O)[C@H](CCN)NC1=O [Compound 126] ({Benzoyl(3-CF3)}-[Dab]T[Dap][Dab][Dab][dF]A[Dab][Dab]T; lactam 4-C)		−2.68	−3.97	0.25 (≈ 0.212 µM)	0.25 (≈ 0.212 µM)	1 (≈ 0.848 µM)	2 (≈ 1.7 µM)	0.5 (≈ 0.424 µM)	1 (≈ 0.848 µM)	1 (≈ 0.848 µM)	1 (≈ 0.848 µM)	1 (≈ 0.848 µM)	0.5 (≈ 0.424 µM)	0.5 (≈ 0.424 µM)	0.5 (≈ 0.424 µM)
